Species: Rattus norvegicus
Assay: DrugMatrix - Regimen: Daily Repeat
Type: toxicity, organism-based, Sprague-Dawley
Parameters: regimen Daily Repeat, gender Male, age 6-8 weeks
Details: in vivo, po, route oral GAVAGE, […]; for ABSOLUTE BASOPHIL / ABSOLUTE EOSINOPHIL / ABSOLUTE LYMPHOCYTE / ABSOLUTE MONOCYTE / ABSOLUTE SEGMENTED NEUTROPHIL / BASOPHIL / EOSINOPHIL / ERYTHROCYTE COUNT / HEMATOCRIT / HEMOGLOBIN / LEUKOCYTE COUNT / LYMPHOCYTE / MEAN CORPUSCULAR HEMOGLOBIN / MEAN CORPUSCULAR HEMOGLOBIN CONCENTRATION / MEAN CORPUSCULAR VOLUME / MONOCYTE / NEUTROPHIL / NUCLEATED RED BLOOD CELLS / PLATELET COUNT: tissue Blood; for ALANINE AMINOTRANSFERASE / ALBUMIN / ALKALINE PHOSPHATASE / ASPARTATE AMINOTRANSFERASE / BLOOD UREA NITROGEN / CARBON DIOXIDE / CHLORIDE / CHOLESTEROL / CREATINE PHOSPHOKINASE / CREATININE / GLUCOSE / LACTATE DEHYDROGENASE / LIPASE / PHOSPHORUS / POTASSIUM / SODIUM / TOTAL BILIRUBIN / TOTAL PROTEIN / URIC ACID: tissue Plasma
[1] = 0 mg/kg, 72 h, dose level Control, time 3 day
[2] = 0 mg/kg, 120 h, dose level Control, time 5 day
[3] = 300 mg/kg, 72 h, dose level High, time 3 day

SMILES: CC(C)c1c(C(=O)Nc2ccccc2)c(-c2ccccc2)c(-c2ccc(F)cc2)n1CC[C@@H](O)C[C@@H](O)CC(=O)O [ATORVASTATIN]
- ABSOLUTE BASOPHIL [1]: 0 CELLS/uL
- ABSOLUTE EOSINOPHIL [1]: 14 CELLS/uL
- ABSOLUTE LYMPHOCYTE [1]: 11144.67 CELLS/uL
- ABSOLUTE MONOCYTE [1]: 22.5 CELLS/uL
- ABSOLUTE SEGMENTED NEUTROPHIL [1]: 535.5 CELLS/uL
- BASOPHIL [1]: 0%
- EOSINOPHIL [1]: 0.17%
- ERYTHROCYTE COUNT [1]: 5.08 x10E6/uL
- HEMATOCRIT [1]: 32.32%
- HEMOGLOBIN [1]: 12.87 G/DL
- LEUKOCYTE COUNT [1]: 11.72 x10E3/uL
- LYMPHOCYTE [1]: 94.67%
- MEAN CORPUSCULAR HEMOGLOBIN [1]: 25.37 pg
- MEAN CORPUSCULAR HEMOGLOBIN CONCENTRATION [1]: 39.85 G/DL
- MEAN CORPUSCULAR VOLUME [1]: 63.58 fL
- MONOCYTE [1]: 0.17%
- NEUTROPHIL [1]: 5%
- NUCLEATED RED BLOOD CELLS [1]: 0 /100WBC
- PLATELET COUNT [1]: 1084 x10E3/uL
- ALANINE AMINOTRANSFERASE [1]: 67.5 u/L
- ALBUMIN [1]: 4.02 G/DL
- ALKALINE PHOSPHATASE [1]: 374.17 u/L
- ASPARTATE AMINOTRANSFERASE [1]: 83.5 u/L
- BLOOD UREA NITROGEN [1]: 14.5 mg/dL
- CARBON DIOXIDE [1]: 30 mmol/L
- CHLORIDE [1]: 100.5 MEQ/L
- CHOLESTEROL [1]: 71.33 mg/dL
- CREATINE PHOSPHOKINASE [1]: 268.33 u/L
- CREATININE [1]: 0.16 mg/dL
- GLUCOSE [1]: 170.5 mg/dL
- LACTATE DEHYDROGENASE [1]: 81.17 u/L
- LIPASE [1]: 16.67 u/L
- PHOSPHORUS [1]: 10.07 mg/dL
- POTASSIUM [1]: 5.03 MEQ/L
- SODIUM [1]: 142.92 MEQ/L
- TOTAL BILIRUBIN [1]: 0.17 mg/dL
- TOTAL PROTEIN [1]: 5.63 G/DL
- URIC ACID [1]: 0.5 mg/dL
- ABSOLUTE BASOPHIL [2]: 0 CELLS/uL
- ABSOLUTE EOSINOPHIL [2]: 37.5 CELLS/uL
- ABSOLUTE LYMPHOCYTE [2]: 8049.5 CELLS/uL
- ABSOLUTE MONOCYTE [2]: 82.83 CELLS/uL
- ABSOLUTE SEGMENTED NEUTROPHIL [2]: 646.83 CELLS/uL
- BASOPHIL [2]: 0%
- EOSINOPHIL [2]: 0.5%
- ERYTHROCYTE COUNT [2]: 5.36 x10E6/uL
- HEMATOCRIT [2]: 33.9%
- HEMOGLOBIN [2]: 13.02 G/DL
- LEUKOCYTE COUNT [2]: 8.82 x10E3/uL
- LYMPHOCYTE [2]: 90.17%
- MEAN CORPUSCULAR HEMOGLOBIN [2]: 24.32 pg
- MEAN CORPUSCULAR HEMOGLOBIN CONCENTRATION [2]: 38.42 G/DL
- MEAN CORPUSCULAR VOLUME [2]: 63.32 fL
- MONOCYTE [2]: 1.17%
- NEUTROPHIL [2]: 8.17%
- NUCLEATED RED BLOOD CELLS [2]: 0.17 /100WBC
- PLATELET COUNT [2]: 1231.5 x10E3/uL
- ALANINE AMINOTRANSFERASE [2]: 62 u/L
- ALBUMIN [2]: 3.97 G/DL
- ALKALINE PHOSPHATASE [2]: 303.67 u/L
- ASPARTATE AMINOTRANSFERASE [2]: 84.5 u/L
- BLOOD UREA NITROGEN [2]: 14.83 mg/dL
- CARBON DIOXIDE [2]: 31.83 mmol/L
- CHLORIDE [2]: 97 MEQ/L
- CHOLESTEROL [2]: 68.83 mg/dL
- CREATINE PHOSPHOKINASE [2]: 411.33 u/L
- CREATININE [2]: 0.16 mg/dL
- GLUCOSE [2]: 170.17 mg/dL
- LACTATE DEHYDROGENASE [2]: 88.5 u/L
- LIPASE [2]: 9.5 u/L
- PHOSPHORUS [2]: 9.98 mg/dL
- POTASSIUM [2]: 5.72 MEQ/L
- SODIUM [2]: 141.62 MEQ/L
- TOTAL BILIRUBIN [2]: 0.1 mg/dL
- TOTAL PROTEIN [2]: 5.67 G/DL
- URIC ACID [2]: 0.52 mg/dL
- ABSOLUTE BASOPHIL [3]: 0 CELLS/uL
- ABSOLUTE EOSINOPHIL [3]: 88 CELLS/uL
- ABSOLUTE LYMPHOCYTE [3]: 7063.33 CELLS/uL
- ABSOLUTE MONOCYTE [3]: 150.67 CELLS/uL
- ABSOLUTE SEGMENTED NEUTROPHIL [3]: 964.67 CELLS/uL
- BASOPHIL [3]: 0%
- EOSINOPHIL [3]: 1%
- ERYTHROCYTE COUNT [3]: 5.19 x10E6/uL
- HEMATOCRIT [3]: 32.23%
- HEMOGLOBIN [3]: 12.9 G/DL
- LEUKOCYTE COUNT [3]: 8.27 x10E3/uL
- LYMPHOCYTE [3]: 86%
- MEAN CORPUSCULAR HEMOGLOBIN [3]: 24.93 pg
- MEAN CORPUSCULAR HEMOGLOBIN CONCENTRATION [3]: 40.13 G/DL
- MEAN CORPUSCULAR VOLUME [3]: 62.1 fL
- MONOCYTE [3]: 1.67%
- NEUTROPHIL [3]: 11.33%
- NUCLEATED RED BLOOD CELLS [3]: 0 /100WBC
- PLATELET COUNT [3]: 924.33 x10E3/uL
- ALANINE AMINOTRANSFERASE [3]: 226.67 u/L
- ALBUMIN [3]: 4.2 G/DL
- ALKALINE PHOSPHATASE [3]: 729 u/L
- ASPARTATE AMINOTRANSFERASE [3]: 518.67 u/L
- BLOOD UREA NITROGEN [3]: 15 mg/dL
- CARBON DIOXIDE [3]: 26.33 mmol/L
- CHLORIDE [3]: 103 MEQ/L
- CHOLESTEROL [3]: 70.67 mg/dL
- CREATINE PHOSPHOKINASE [3]: 416.67 u/L
- CREATININE [3]: 0.17 mg/dL
- GLUCOSE [3]: 160 mg/dL
- LACTATE DEHYDROGENASE [3]: 414.67 u/L
- LIPASE [3]: 12 u/L
- PHOSPHORUS [3]: 10 mg/dL
- POTASSIUM [3]: 4.92 MEQ/L
- SODIUM [3]: 144.23 MEQ/L
- TOTAL BILIRUBIN [3]: 0.37 mg/dL
- TOTAL PROTEIN [3]: 5.67 G/DL
- URIC ACID [3]: 0.67 mg/dL

Reference: ChEMBL document CHEMBL3885881, “DrugMatrix”
